pKd: −log10 of the molar value.
Legend:
calmodulin [1] = molecular target: T1, calmodulin (Homo sapiens, UniProt P0DP23); experiment: native gel autoradiography of calmodulin with radiolabelled melatonin; type: binding; settings: 15% polyacrylamide gel, 0.5mM CaCl2, no SDS
Protocol: In order to assess this, 1µl calmodulin (lmg/ml) was incubated with 1µCi 2-[^125I]-melatonin in 9µl TBSC and run on a 15% polyacrylamide gel. The gel was as the running gel of Laemmli (Nature 1970 220 680-685), but with 0.5mM CaCl2 and no SDS in both gel and buffer.

calmodulin [2] = molecular target: T1, calmodulin; settings: published value; cited from earlier work
calmodulin [3] = molecular target: T1, calmodulin; settings: cited from earlier work

## COc1ccc2[nH]c([125I])c(CCNC(C)=O)c2c1 [2-[^125I]-melatonin]
Calmodulin [1]
  radioactive band of complex with calmodulin: no radioactive band was detected

## COc1ccc2[nH]cc(CCNC(C)=O)c2c1 [melatonin]
Calmodulin [1]
  radioactive band of complex with calmodulin: no complex is detected
Calmodulin [2]
  half-life of the calmodulin-melatonin complex: 2 min

## mastoparan
Calmodulin [3]; affinity for calmodulin
  Ka: 3.3e+09 M⁻¹
Calmodulin [3]; binds calmodulin
  pKd: 9.52

From patent publication EP0726951B1, “MANUFACTURE AND USE OF POLYPEPTIDES TAGGED USING BINDING MOLECULES” (MEDICAL RESEARCH COUNCIL, priority 1993, dated 1995)
